{"source": "patent US20260000642A1", "about": "(Tay Therapeutics Limited, priority 2022, published 2026)", "system": "collagen-induced arthritis in Lewis rats", "assay": "Collagen-induced arthritis (CIA) model in rats: body weight, paw volume, clinical scores, clinical observations", "settings": "for Animal body weight percent change / Animal body weight: Group 5 (CIA + Example 101 3 mg/kg)", "key": {"[1]": {"settings": "Day 1, individual animals, 3 mg/kg"}, "[2]": {"settings": "Day 3, individual animals, 3 mg/kg"}, "[3]": {"settings": "Day 7, individual animals, 3 mg/kg"}}, "note": "Values joined by “and” are separate entries in the source; they are usually repeats but may differ in a detail not shown here. Identical values can stand only once."}
{"smiles": "CNC(=O)c1[nH]c(C(=O)NC2CCC2)cc1O[C@@H](C)c1ccccc1", "note": "[Example 101, N^5-cyclobutyl-N^2-methyl-3-(1-phenylethoxy)-1H-pyrrole-2,5-dicarboxamide]", "values": [{"measurement": "Average animal body weight percent change", "setting": "Day 12, CIA + 30 mg/kg", "value": 0.66, "unit": "%"}, {"measurement": "Mean animal body weight", "setting": "Day 12, CIA + 30 mg/kg", "value": 163, "unit": "g"}, {"measurement": "Average animal body weight percent change", "setting": "Day 13, CIA + 3 mg/kg", "value": 7.74, "unit": "%"}, {"measurement": "Mean animal body weight", "setting": "Day 13, CIA + 3 mg/kg", "value": 178, "unit": "g"}, {"measurement": "Average animal body weight percent change", "setting": "Day 13, CIA + 10 mg/kg", "value": 3.92, "unit": "%"}, {"measurement": "Mean animal body weight", "setting": "Day 13, CIA + 10 mg/kg", "value": 169, "unit": "g"}, {"measurement": "Average animal body weight percent change", "setting": "Day 13, CIA + 30 mg/kg", "value": 0.18, "unit": "%"}, {"measurement": "Mean animal body weight", "setting": "Day 13, CIA + 30 mg/kg", "value": 162, "unit": "g"}, {"measurement": "Average animal body weight percent change", "setting": "Day 14, CIA + 3 mg/kg", "value": 7.08, "unit": "%"}, {"measurement": "Mean animal body weight", "setting": "Day 14, CIA + 3 mg/kg", "value": 177, "unit": "g"}, {"measurement": "Average animal body weight percent change", "setting": "Day 14, CIA + 10 mg/kg", "value": 4.05, "unit": "%"}, {"measurement": "Mean animal body weight", "setting": "Day 14, CIA + 10 mg/kg", "value": 169, "unit": "g"}, {"measurement": "Average animal body weight percent change", "setting": "Day 14, CIA + 30 mg/kg", "value": 1.42, "unit": "%"}, {"measurement": "Mean animal body weight", "setting": "Day 14, CIA + 30 mg/kg", "value": 164, "unit": "g"}, {"measurement": "Average animal body weight percent change", "setting": "Day 15, CIA + 3 mg/kg", "value": 5.15, "unit": "%"}, {"measurement": "Mean animal body weight", "setting": "Day 15, CIA + 3 mg/kg", "value": 173, "unit": "g"}, {"measurement": "Average animal body weight percent change", "setting": "Day 15, CIA + 10 mg/kg", "value": 3.31, "unit": "%"}, {"measurement": "Mean animal body weight", "setting": "Day 15, CIA + 10 mg/kg", "value": 168, "unit": "g"}, {"measurement": "Average animal body weight percent change", "setting": "Day 15, CIA + 30 mg/kg", "value": 2.38, "unit": "%"}, {"measurement": "Mean animal body weight", "setting": "Day 15, CIA + 30 mg/kg", "value": 166, "unit": "g"}, {"measurement": "Average animal body weight percent change", "setting": "Day 16, CIA + 3 mg/kg", "value": 3.90, "unit": "%"}, {"measurement": "Mean animal body weight", "setting": "Day 16, CIA + 3 mg/kg", "value": 171, "unit": "g"}, {"measurement": "Average animal body weight percent change", "setting": "Day 16, CIA + 10 mg/kg", "value": 2.23, "unit": "%"}, {"measurement": "Mean animal body weight", "setting": "Day 16, CIA + 10 mg/kg", "value": 166, "unit": "g"}, {"measurement": "Average animal body weight percent change", "setting": "Day 16, CIA + 30 mg/kg", "value": 1.69, "unit": "%"}, {"measurement": "Mean animal body weight", "setting": "Day 16, CIA + 30 mg/kg", "value": 165, "unit": "g"}, {"measurement": "Average animal body weight percent change", "setting": "Day 17, CIA + 3 mg/kg", "value": 3.37, "unit": "%"}, {"measurement": "Mean animal body weight", "setting": "Day 17, CIA + 3 mg/kg", "value": 170, "unit": "g"}, {"measurement": "Average animal body weight percent change", "setting": "Day 17, CIA + 10 mg/kg", "value": 2.29, "unit": "%"}, {"measurement": "Mean animal body weight", "setting": "Day 17, CIA + 10 mg/kg", "value": 166, "unit": "g"}, {"measurement": "Average animal body weight percent change", "setting": "Day 17, CIA + 30 mg/kg", "value": 1.41, "unit": "%"}, {"measurement": "Mean animal body weight", "setting": "Day 17, CIA + 30 mg/kg", "value": 164, "unit": "g"}, {"measurement": "Average animal body weight percent change", "setting": "Day 18, CIA + 3 mg/kg", "value": 2.36, "unit": "%"}, {"measurement": "Mean animal body weight", "setting": "Day 18, CIA + 3 mg/kg", "value": 169, "unit": "g"}, {"measurement": "Average animal body weight percent change", "setting": "Day 18, CIA + 10 mg/kg", "value": 1.38, "unit": "%"}, {"measurement": "Mean animal body weight", "setting": "Day 18, CIA + 10 mg/kg", "value": 165, "unit": "g"}, {"measurement": "Average animal body weight percent change", "setting": "Day 18, CIA + 30 mg/kg", "value": 1.61, "unit": "%"}, {"measurement": "Mean animal body weight", "setting": "Day 18, CIA + 30 mg/kg", "value": 165, "unit": "g"}, {"measurement": "Average animal body weight percent change", "setting": "Day 19, CIA + 3 mg/kg", "value": 0.91, "unit": "%"}, {"measurement": "Mean animal body weight", "setting": "Day 19, CIA + 3 mg/kg", "value": 166, "unit": "g"}, {"measurement": "Average animal body weight percent change", "setting": "Day 19, CIA + 10 mg/kg", "value": 0.76, "unit": "%"}, {"measurement": "Mean animal body weight", "setting": "Day 19, CIA + 10 mg/kg", "value": 164, "unit": "g"}, {"measurement": "Average animal body weight percent change", "setting": "Day 19, CIA + 30 mg/kg", "value": 1.24, "unit": "%"}, {"measurement": "Mean animal body weight", "setting": "Day 19, CIA + 30 mg/kg", "value": 164, "unit": "g"}, {"measurement": "Average animal body weight percent change", "setting": "Day 20, CIA + 3 mg/kg", "value": 1.13, "unit": "%"}, {"measurement": "Mean animal body weight", "setting": "Day 20, CIA + 3 mg/kg", "value": 167, "unit": "g"}, {"measurement": "Average animal body weight percent change", "setting": "Day 20, CIA + 10 mg/kg", "value": 1.30, "unit": "%"}, {"measurement": "Mean animal body weight", "setting": "Day 20, CIA + 10 mg/kg", "value": 164, "unit": "g"}, {"measurement": "Average animal body weight percent change", "setting": "Day 20, CIA + 30 mg/kg", "value": 0.50, "unit": "%"}, {"measurement": "Mean animal body weight", "setting": "Day 20, CIA + 30 mg/kg", "value": 163, "unit": "g"}, {"measurement": "Average animal body weight percent change", "setting": "Day 21, CIA + 3 mg/kg", "value": 1.73, "unit": "%"}, {"measurement": "Mean animal body weight", "setting": "Day 21, CIA + 3 mg/kg", "value": 168, "unit": "g"}, {"measurement": "Average animal body weight percent change", "setting": "Day 21, CIA + 10 mg/kg", "value": 0.53, "unit": "%"}, {"measurement": "Mean animal body weight", "setting": "Day 21, CIA + 10 mg/kg", "value": 163, "unit": "g"}, {"measurement": "Average animal body weight percent change", "setting": "Day 21, CIA + 30 mg/kg", "value": 0.50, "unit": "%"}, {"measurement": "Mean animal body weight", "setting": "Day 21, CIA + 30 mg/kg", "value": 163, "unit": "g"}, {"measurement": "Animal body weight percent change", "setting": "Day 0, individual animals", "value": 0.00, "unit": "%"}, {"measurement": "Animal body weight", "setting": "[1]", "value": 170, "unit": "g"}, {"measurement": "Animal body weight percent change", "setting": "[1]", "value": "−0.58% and 0.65%"}, {"measurement": "Animal body weight percent change", "setting": "Day 2, individual animals, 3 mg/kg", "value": "0.62% and 0.56% and −1.20%"}, {"measurement": "Animal body weight", "setting": "[2]", "value": "160 g and 170 g"}, {"measurement": "Animal body weight percent change", "setting": "[2]", "value": "−0.62% and −1.13% and −0.60%"}, {"measurement": "Animal body weight", "setting": "Day 4, individual animals, 3 mg/kg", "value": 170, "unit": "g"}, {"measurement": "Animal body weight percent change", "setting": "Day 5, individual animals, 3 mg/kg", "value": 0.00, "unit": "%"}, {"measurement": "Animal body weight", "setting": "Day 6, individual animals, 3 mg/kg", "value": "180 g and 160 g"}, {"measurement": "Animal body weight", "setting": "[3]", "value": "160 g and 180 g"}, {"measurement": "Animal body weight percent change", "setting": "[3]", "value": 0.63, "unit": "%"}, {"measurement": "Animal body weight", "setting": "Day 8, individual animals, 3 mg/kg", "value": 160, "unit": "g"}, {"measurement": "Animal body weight", "setting": "Day 9, individual animals, 3 mg/kg", "value": 170, "unit": "g"}, {"measurement": "Animal body weight percent change", "setting": "Day 10, individual animals, 3 mg/kg", "value": 9.70, "unit": "%"}, {"measurement": "Animal body weight", "setting": "Day 11, individual animals, 3 mg/kg", "value": 180, "unit": "g"}]}
